Measured values as given in PubChem BioAssay AID2060332 (Molecular Pharmacology Branch, DTP, NCI, 2025).

Test system: LG0567-F671-PDC multi-cell spheroid viability
Experiment: Anticancer human tumor LG0567-F671-PDC patient-derived lung adenocarcinoma cell line growth inhibition [IpAb]
Details: for IC50: curve of first compound; for viability, T/C: stronger effect = lower value
Text: Combinatorial screen of targeted agents with ipatasertib and abemaciclib in multi-cell type tumor spheroids
A high-throughput screen of multi-cell type tumor spheroids was designed to identify active combinations of targeted small molecules and ipatasertib or abemaciclib. Complex spheroids include a stromal component modeled by human endothelial cells (HUVEC) and fibroblasts modeled by human mesenchymal stem cells (MSCs). The concentration ranges selected for each drug and investigational agent were based upon clinically achievable concentrations if the clinical Cmax of the agent was known.
Compounds. The drugs and investigational agents: ipatasertib (NSC767898), abemaciclib(NSC768073), selumetinib (NSC741078), trametinib (758246), adavosertib (NSC754352), everolimus (NSC733504), sapanisertib (NSC764658), vemurafenib (NSC761431), venetoclax (NSC766270), copanlisib (NSC809693), apelisib (NSC765974), palbociblib (NSC758247), vemurafenib (NSC761431), dabrafenib (NSC764134), ravoxertinib (NSC781343), BMS-387032 (NSC767048), sotorasib (NSC818433), talazoparib (NSC767125) and afursertib (NSC778305), were obtained from the National Cancer Institute (NCI) Developmental Therapeutics Program Chemical Repository. The FDA-approved anticancer drug set is available from the NCI Developmental Therapeutics Program. […] The stock solutions were prepared in dimethyl sulfoxide (DMSO, Sigma-Aldrich, St. Louis, MO, cat. D2650) at 800-fold the tested concentration and stored at -70 degrees C prior to their use. All drugs and investigational agents were tested over a range starting from a high concentration at or near the clinical Cmax and decreasing in half-log increments. If the clinical Cmax for an agent had not been determined, the highest concentration tested was 10 microM.
NCI60 Cell Culture. NCI60 cell lines were obtained from the NCI Developmental Therapeutics Program Tumor Repository. For each lot of cells, the Repository performed Applied Biosystems AmpFLSTR Identifiler testing with PCR amplification to confirm consistency with the published Identifier STR profile for each cell line. Cells were kept in continuous culture for no more than 20 passages. The optimal seeding densities for each of the cell lines at each time point assessed were determined prior to performing the concentration response studies. Briefly, the NCI60 human tumor lines were grown as monolayers in RPMI 1640 medium supplemented with 10% FBS and 2 mmol/L L-glutamine.
An additional 9 lines were from the NCI60 cell line panel including MDA-MB-231 breast carcinoma, MDA-MB-468 breast carcinoma, MCF7 breast carcinoma, Hs578T breast carcinoma, MALME-3M melanoma, SK-MEL-2 melanoma, SK-OV-3 ovarian carcinoma, DU-145 prostate carcinoma, PC-3 prostate carcinoma, all cell lines along with major genetic alterations are listed on Table 2. Pooled donor human umbilical vein endothelial cells (HUVEC, Lonza, cat. CC-2519) and human mesenchymal stem cells (hMSC, Lonza, cat. PT-2501) were purchased from Lonza (Walkersville, MD).
PDMR cell lines were grown in complete medium (DC medium): Dulbecco's modified Eagle's medium (DMEM)/F12 supplemented with 5% fetal bovine serum (FBS), 2 mM L-glutamine, 100 U/mL penicillin and 100 µg/ml streptomycin, 0.4 µg/ml hydrocortisone, 10 ng/ml epidermal growth factor (EGF) recombinant human protein, 24 µg/mL adenine, and 0.1 mg/mL primocin. During culture from frozen stock vials, PDMR cells were cultured in the same medium containing 10 µM Y-27632 (see Table 3). The PDCs were cultured in complete DMEM/F12 media without 10 microM Y-27632 dihydrochloride for at least two passages prior to the screen. The pooled donor HUVEC and hMSC were cultured in endothelial cell growth medium 2 (PromoCell, Heidelberg, Germany, cat. C-22011) and mesenchymal stem cell growth medium 2 (PromoCell, cat. C-28009), respectively. For all experiments, HUVEC and hMSC were used at passages </=5.
[…]

[1] = second compound 0.1 µM, first compound 0.0316 µM
[2] = second compound 0.1 µM, first compound 0.1 µM
[3] = second compound 0.1 µM, first compound 0.316 µM
[4] = second compound 0.1 µM, first compound 1 µM
[5] = second compound 0.316 µM, first compound 0.0316 µM
[6] = second compound 0.316 µM, first compound 0.1 µM
[7] = second compound 0.316 µM, first compound 0.316 µM
[8] = second compound 0.316 µM, first compound 1 µM
[9] = second compound 1 µM, first compound 0.0316 µM
[10] = second compound 1 µM, first compound 0.1 µM
[11] = second compound 1 µM, first compound 0.316 µM
[12] = second compound 1 µM, first compound 1 µM
[13] = second compound 3.16 µM, first compound 0.0316 µM
[14] = second compound 3.16 µM, first compound 0.1 µM
[15] = second compound 3.16 µM, first compound 0.316 µM
[16] = second compound 3.16 µM, first compound 1 µM
[17] = second compound 10 µM, first compound 0.0316 µM
[18] = second compound 10 µM, first compound 0.1 µM
[19] = second compound 10 µM, first compound 0.316 µM
[20] = second compound 10 µM, first compound 1 µM
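Further: viability read after 7 days of drug exposure.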
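Wherever viability, T/C is given: 100% = DMSO vehicle control luminescence.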

CC(=O)c1c(C)c2cnc(Nc3ccc(N4CCNCC4)cn3)nc2n(C2CCCC2)c1=O + CC(C)NCC(C(=O)N1CCN(c2ncnc3c2C(C)CC3O)CC1)c1ccc(Cl)cc1
IC50 (second compound 0.1 µM): > 300 nM
IC50 (second compound 0.316 µM): > 300 nM
IC50 (second compound 1 µM): > 300 nM
IC50 (second compound 3.16 µM): > 300 nM
IC50 (second compound 10 µM): > 300 nM
viability, T/C (second compound 0.1 µM, first compound 0.000949 µM): 89.3%
viability, T/C (second compound 0.1 µM, first compound 0.003 µM): 84.7%
viability, T/C (second compound 0.1 µM, first compound 0.00949 µM): 68.9%
viability, T/C (second compound 0.1 µM, first compound 0.03 µM): 69.5%
viability, T/C (second compound 0.1 µM, first compound 0.0949 µM): 67.7%
viability, T/C (second compound 0.1 µM, first compound 0.3 µM): 75.6%
viability, T/C (second compound 0.316 µM, first compound 0.000949 µM): 66.5%
viability, T/C (second compound 0.316 µM, first compound 0.003 µM): 71.5%
viability, T/C (second compound 0.316 µM, first compound 0.00949 µM): 69.7%
viability, T/C (second compound 0.316 µM, first compound 0.03 µM): 61.3%
viability, T/C (second compound 0.316 µM, first compound 0.0949 µM): 58.1%
viability, T/C (second compound 0.316 µM, first compound 0.3 µM): 62.5%
viability, T/C (second compound 1 µM, first compound 0.000949 µM): 76.3%
viability, T/C (second compound 1 µM, first compound 0.003 µM): 73.6%
viability, T/C (second compound 1 µM, first compound 0.00949 µM): 78.9%
viability, T/C (second compound 1 µM, first compound 0.03 µM): 66%
viability, T/C (second compound 1 µM, first compound 0.0949 µM): 63.1%
viability, T/C (second compound 1 µM, first compound 0.3 µM): 75.2%
viability, T/C (second compound 3.16 µM, first compound 0.000949 µM): 61.2%
viability, T/C (second compound 3.16 µM, first compound 0.003 µM): 80.1%
viability, T/C (second compound 3.16 µM, first compound 0.00949 µM): 74.2%
viability, T/C (second compound 3.16 µM, first compound 0.03 µM): 69.1%
viability, T/C (second compound 3.16 µM, first compound 0.0949 µM): 68.4%
viability, T/C (second compound 3.16 µM, first compound 0.3 µM): 69.2%
viability, T/C (second compound 10 µM, first compound 0.000949 µM): 71.7%
viability, T/C (second compound 10 µM, first compound 0.003 µM): 84.8%
viability, T/C (second compound 10 µM, first compound 0.00949 µM): 79.3%
viability, T/C (second compound 10 µM, first compound 0.03 µM): 59.6%
viability, T/C (second compound 10 µM, first compound 0.0949 µM): 60.3%
viability, T/C (second compound 10 µM, first compound 0.3 µM): 58.4%

COc1c(OCCCN2CCOCC2)ccc2c3n(c(=NC(=O)c4cnc(N)nc4)nc12)CCN3 + CC(C)NCC(C(=O)N1CCN(c2ncnc3c2C(C)CC3O)CC1)c1ccc(Cl)cc1
IC50 (second compound 0.1 µM): 53.7 nM
IC50 (second compound 0.316 µM): 43.4 nM
IC50 (second compound 1 µM): 11.8 nM
IC50 (second compound 3.16 µM): 22.4 nM
IC50 (second compound 10 µM): 6.24 nM
viability, T/C (second compound 0.1 µM, first compound 0.00316 µM): 99.6%
viability, T/C (second compound 0.1 µM, first compound 0.01 µM): 85.8%
viability, T/C [1]: 54.7%
viability, T/C [2]: 44%
viability, T/C [3]: 32.2%
viability, T/C [4]: 29.4%
viability, T/C (second compound 0.316 µM, first compound 0.00316 µM): 82.8%
viability, T/C (second compound 0.316 µM, first compound 0.01 µM): 75.8%
viability, T/C [5]: 47.4%
viability, T/C [6]: 42.6%
viability, T/C [7]: 28.5%
viability, T/C [8]: 19.9%
viability, T/C (second compound 1 µM, first compound 0.00316 µM): 72.7%
viability, T/C (second compound 1 µM, first compound 0.01 µM): 49.8%
viability, T/C [9]: 41%
viability, T/C [10]: 30%
viability, T/C [11]: 30.5%
viability, T/C [12]: 22.6%
viability, T/C (second compound 3.16 µM, first compound 0.00316 µM): 71.4%
viability, T/C (second compound 3.16 µM, first compound 0.01 µM): 58.5%
viability, T/C [13]: 46.5%
viability, T/C [14]: 34.5%
viability, T/C [15]: 26.7%
viability, T/C [16]: 18.4%
viability, T/C (second compound 10 µM, first compound 0.00316 µM): 57.3%
viability, T/C (second compound 10 µM, first compound 0.01 µM): 42.2%
viability, T/C [17]: 39%
viability, T/C [18]: 30.9%
viability, T/C [19]: 18.9%
viability, T/C [20]: 18.8%

Cc1nc(NC(=O)N2CCCC2C(N)=O)sc1-c1ccnc(C(C)(C)C(F)(F)F)c1 (stereo not given) + CC(C)NCC(C(=O)N1CCN(c2ncnc3c2C(C)CC3O)CC1)c1ccc(Cl)cc1
IC50 (second compound 0.1 µM): 5190 nM
IC50 (second compound 0.316 µM): 924 nM
IC50 (second compound 1 µM): 257 nM
IC50 (second compound 3.16 µM): 341 nM
IC50 (second compound 10 µM): < 31.6 nM
viability, T/C [1]: 85.3%
viability, T/C [2]: 86.2%
viability, T/C [3]: 71%
viability, T/C [4]: 42.8%
viability, T/C (second compound 0.1 µM, first compound 3.16 µM): 72%
viability, T/C (second compound 0.1 µM, first compound 10 µM): 39.7%
viability, T/C [5]: 63.8%
viability, T/C [6]: 72%
viability, T/C [7]: 44.2%
viability, T/C [8]: 56.8%
viability, T/C (second compound 0.316 µM, first compound 3.16 µM): 40.2%
viability, T/C (second compound 0.316 µM, first compound 10 µM): 35.9%
viability, T/C [9]: 66.1%
viability, T/C [10]: 68.2%
viability, T/C [11]: 46.2%
viability, T/C [12]: 34.2%
viability, T/C (second compound 1 µM, first compound 3.16 µM): 35.6%
viability, T/C (second compound 1 µM, first compound 10 µM): 29.8%
viability, T/C [13]: 56%
viability, T/C [14]: 50.9%
viability, T/C [15]: 48.7%
viability, T/C [16]: 44.5%
viability, T/C (second compound 3.16 µM, first compound 3.16 µM): 41.1%
viability, T/C (second compound 3.16 µM, first compound 10 µM): 21.4%
viability, T/C [17]: 50.5%
viability, T/C [18]: 53.1%
viability, T/C [19]: 38.6%
viability, T/C [20]: 46.2%
viability, T/C (second compound 10 µM, first compound 3.16 µM): 37.8%
viability, T/C (second compound 10 µM, first compound 10 µM): 25.8%
